Laboratory results published in patent US8853452B2, “Compounds, their syntheses, compositions, and methods to treat cancer” (The Administrators of the Tulane Educational Fund, priority 2009, dated 2014).

Tests used:
MCF-7TN-R cells [1] = test: Proliferation assay; type: cell-based; conditions: Homo sapiens; Table 3; read-out: IC50 (μM), anti-proliferative in MCF-7TN-R cells
Procedure: The ability of compound II-3 to block proliferation as an anti-survival mechanism in addition to apoptosis was determined by measuring anti-proliferative effects.
Nineteen compounds were synthesized using fifteen benzaldehydes as starting material. […] These were tested as potential anti-proliferative agents in MCF-7TN-R cells, and the structure-activity relationships were studied using several parameters. […] In compounds containing a methyl group, a significant increase of the PAC (C) in o-substituted compound was detected, which may account for the increased anti-proliferation activity. Ortho-substituted analogs with electron withdrawing groups by induction can have beneficial effects, and PAC (C) can be a useful predictor of the structural property of the molecule.

[2] = Log K (structure-activity parameter); type: physicochemical
MCF-7 cells [3] = test: Clonogenic survival assay; type: cell-based, Human
Procedure: (§1) Human cancer cell lines derived from breast, MCF-7, endocrine-resistant MDA-MB-231, and chemoresistant MCF-7TN-R were cultured in 75 cm^2 culture flasks in DMEM (Invitrogen, Co.) supplemented with 10% FBS (Life Technologies, Inc., Gaithersburg, Md.), basic minimum MEM essential (50×, Invitrogen Co.) and MEM non-essential (100×, Invitrogen, Co.) amino acids, sodium pyruvate (100× Invitrogen Co.), antimicotic-antibiotic (10,000 U/mL penicillin G sodium; 10,000 μg/mL streptomycin sulphate; 25 μg/mL amphotericin B as Fungizone®), and human recombinant insulin (4 mg/mL Invitrogen Co). Culture flasks were maintained in a tissue culture incubator in a humidified atmosphere of 5% CO2 and 95% air at 37° C.
(§2) MCF-7, MDA-MB-231, or MCF-7TN-R cells were plated in 6-well plates at 1000 cells per well. Twenty-four hours later, cells were treated with varying concentrations of the compound and then monitored microscopically for colony growth. Ten days later the cells were fixed with 3% glutaraldehyde. Following fixation for 15 min, the plates were washed and stained with a 0.4% solution of crystal violet in 20% methanol for 30 min, washed with PBS, and air-dried. Colonies of 30 cells were counted as positive. Results are normalized to percent clonogenic survival from untreated control cells. Statistical analysis of IC50 values were calculated from concentration-response curves using GraphPad Prism 5.0 (Graphpad Software, San Diego, Calif.), using with the equation: Y=Bottom+(Top−bottom)/1+10 Log EC50−X.
(§3) Compounds II-1, II-2, II-3, II-4, II-5, and II-6 were compared for their inhibitory effect on breast cancer clonogenic survival. Cells were treated with varying concentration of compound, ranging from 0.1 μM-20 μM for 10 days. […] At endpoint, cell colonies were fixed, stained and recorded as percent vehicle control.

MCF-7TN-R cells [4] = test: Clonogenic survival assay; type: cell-based, Human; conditions: Homo sapiens, 240 h
Procedure: as §1, §2, §3

MDA-MB-231 cells [5] = test: Clonogenic survival assay; type: cell-based, Human; conditions: Homo sapiens, MDA-MB-231, 240 h
Procedure: as §1, §2, §3

MCF-7 cells [6] = test: Viability assay using MTT; type: cell-based; conditions: Homo sapiens, MCF7, 24 h, compounds 0.1 to 100 μM, unit inferred, read-out: MCF-7 (IC50), Viability Assays
Procedure: as §1
(§4) The effect of ceramide and compounds on cell growth was determined using MTT viability assays. MCF-7, MDA-MB-231, or MCF-7TN-R cells were plated at […] cells per well in a 96-well plate in phenol-free DMEM supplemented with 5% FBS and allowed to adhere overnight. Cells were then treated with compounds I-1, I-2, I-3, or I-4 (ranging from 0.1 to 100 μM) for 24 h. Following that treatment, 20 μL of MTT (5 mg/ml) reagent was added to each well prior to incubation for 4 hr. Cells were then lysed with 20% SDS in 50% dimethylformamide. The pH and absorbances were read on an EL×808 Microtek plate reader (Winooski, Vt.) at 550 nm, with a reference wavelength of 630 nm.
(§5) Statistical analysis of IC50 values were calculated from concentration-response curves using GraphPad Prism 5.0 (Graphpad Software, San Diego, Calif.), using with the equation: Y=Bottom+(Top−bottom)/1+10 Log EC50−X assuming a standard slope, where the response goes from 10% to 90% of maximal as X increases over two log units. Differences in IC50 were compared using Student's unpaired t-test with p<0.05 as the limit of statistical significance. Experiments comparing multiple concentrations to the control were tested with one-way ANOVA with Bonferroni post-test to compare individual concentrations. All statistical analysis were done using GraphPad Prism 5.0. […].

MCF-7TN-R cells [7] = test: Viability assay using MTT; type: cell-based; conditions: Homo sapiens, 24 h, compounds 0.1 to 100 μM, unit inferred, read-out: MCF-7TN-R (IC50), Viability Assays
Procedure: as §1, §4, §5

MDA-MB-231 cells [8] = test: Viability assay using MTT; type: cell-based; conditions: Homo sapiens, 24 h, compounds 0.1 to 100 μM, unit inferred, read-out: MDA-MB-231 (IC50), Viability Assays
Procedure: as §1, §4, §5

[9] = Homo sapiens, MCF7, 240 h, Table 2, 0.1 μM-20 μM for 10 days, read-out: MCF-7 (IC50), clonogenic survival
[10] = Table 2, 0.1 μM-20 μM for 10 days, read-out: MCF-7-TNR (IC50), clonogenic survival
[11] = Table 2, 0.1 μM-20 μM for 10 days, read-out: MDA-MB-231 (IC50), clonogenic survival
[12] = Homo sapiens, MCF7, 240 h, Table 1B, 10 days, read-out: MCF-7 (IC50), Clonogenic Survival Assays
[13] = Table 1B, 10 days, read-out: MCF-7TN-R (IC50), Clonogenic Survival Assays
[14] = Table 1B, 10 days, read-out: MDA-MB-231 (IC50), Clonogenic Survival Assays

CCCCCCCCCCCCCCNC(=O)[C@H](CO)N=Cc1cccc(O)c1 [II-20, (S)-2-(3-hydroxybenzylideneamino)-3-hydroxy-N-tetradecylpropanamide]
IC50 (MCF-7TN-R cells [1]): 32.6 µM
Log K [2]: 0.76

CCCCCCCCCCCCCCNC(=O)[C@H](CO)N=Cc1ccc(O)cc1 [II-19, (S)-2-(4-hydroxybenzylideneamino)-3-hydroxy-N-tetradecylpropanamide]
IC50 (MCF-7TN-R cells [1]): 19.3 µM
Log K [2]: 0.73

CCCCCCCCCCCCCCNC(=O)[C@H](CO)N=Cc1cccc(OC)c1 [II-17, (S)-2-(3-methoxybenzylideneamino)-3-hydroxy-N-tetradecylpropanamide]
IC50 (MCF-7TN-R cells [1]): 31.2 µM
Log K [2]: 0.92

CCCCCCCCCCCCCCNC(=O)[C@H](CO)NC(=O)C(C)(C)C [II-4, (S)-3-hydroxy-2-pivalamido-N-tetradecylpropanamide]
IC50 (MCF-7 cells [3]; [9]): 6.7 µM
IC50 (MCF-7TN-R cells [4]; [10]): 11.1 µM
IC50 (MDA-MB-231 cells [5]; [11]): 6.1 µM

CCCCCCCCCCCCCCNC(=O)[C@H](CO)N=Cc1ccc(Cl)cc1 [II-13, (S)-2-(4-chlorobenzylideneamino)-3-hydroxy-N-tetradecylpropanamide]
IC50 (MCF-7TN-R cells [1]): 27.5 µM
Log K [2]: 1.09

CCCCCCCCCCCCCCNC(=O)[C@H](CO)NC(C)=O [II-6, (S)-2-acetamido-3-hydroxy-N-tetradecylpropanamide]
IC50 (MCF-7 cells [3]; [9]): 44.7 µM
IC50 (MCF-7TN-R cells [4]; [10]): 52.7 µM
IC50 (MDA-MB-231 cells [5]; [11]): 75.1 µM

CCCCCCCCCCCCCCNC(=O)[C@H](CO)NC(=O)c1cc(OC)cc(OC)c1 [II-5, (S)—N-(3-hydroxy-1-oxo-1-(tetradecylamino)propan-2-yl)-3,5-dimethoxybenzamide]
IC50 (MCF-7 cells [3]; [9]): 11.2 µM
IC50 (MCF-7TN-R cells [4]; [10]): 15 µM
IC50 (MDA-MB-231 cells [5]; [11]): 6.6 µM

CCCCCCCCCCCCC/C=C/[C@@H](O)[C@H](CO)/N=C/c1ccccc1 [Compound I-3, (2S,3R,E)-2-((E)-benzylideneamino)octadec-4-ene-1,3-diol]
IC50 (MCF-7 cells [6]): 9 µM
IC50 (MCF-7TN-R cells [7]): 3.6 µM
IC50 (MDA-MB-231 cells [8]): 4.8 µM
IC50 (MCF-7 cells [3]; [12]): 1.7 µM
IC50 (MCF-7TN-R cells [4]; [13]): 0.1 µM
IC50 (MDA-MB-231 cells [5]; [14]): 1.4 µM

CCCCCCCCCCCCCCNC(=O)[C@H](CO)N=Cc1ccc(OC)cc1 [II-16, (S)-2-(4-methoxybenzylideneamino)-3-hydroxy-N-tetradecylpropanamide]
IC50 (MCF-7TN-R cells [1]): 28.1 µM
Log K [2]: 0.91

CCCCCCCCCCCCC/C=C/[C@@H](O)[C@H](CO)NCc1ccccc1 [Compound I-2, (2S,3R,E)-2-(benzylamino)octadec-4-ene-1,3-diol]
IC50 (MCF-7 cells [6]): 6.3 µM
IC50 (MCF-7TN-R cells [7]): 3 µM
IC50 (MDA-MB-231 cells [8]): 3.7 µM
IC50 (MCF-7 cells [3]; [12]): 1.5 µM
IC50 (MCF-7TN-R cells [4]; [13]): 0.6 µM
IC50 (MDA-MB-231 cells [5]; [14]): 1.1 µM

CCCCCCCCCCCCC/C=C/[C@@H](O)[C@H](CO)NC(=O)C(C)(C)C [Compound I-4, N-((2S,3R,E)-1,3-dihydroxyoctadec-4-en-2-yl)pivalamide]
IC50 (MCF-7 cells [6]): 13.5 µM
IC50 (MCF-7TN-R cells [7]): 4.2 µM
IC50 (MDA-MB-231 cells [8]): 8 µM
IC50 (MCF-7 cells [3]; [12]): 1.5 µM
IC50 (MCF-7TN-R cells [4]; [13]): 0.6 µM
IC50 (MDA-MB-231 cells [5]; [14]): 0.5 µM

CCCCCCCCCCCCCCNC(=O)[C@H](CO)N=Cc1ccc([N+](=O)[O-])cc1 [II-7, (S)-2-(4-nitrobenzylideneamino)-3-hydroxy-N-tetradecylpropanamide]
IC50 (MCF-7TN-R cells [1]): 216 µM
Log K [2]: 0.86

CCCCCCCCCCCCCCNC(=O)[C@H](CO)NC(=O)C1CCCCC1 [II-1, (S)—N-(3-hydroxy-1-oxo-1-(tetradecylamino)propan-2-yl)cyclohexanecarboxamide]
IC50 (MCF-7 cells [3]; [9]): 7.2 µM
IC50 (MCF-7TN-R cells [4]; [10]): 23.5 µM
IC50 (MDA-MB-231 cells [5]; [11]): 11.5 µM

CCCCCCCCCCCCCCNC(=O)[C@H](CO)N=Cc1cccc([N+](=O)[O-])c1 [II-8, (S)-2-(3-nitrobenzylideneamino)-3-hydroxy-N-tetradecylpropanamide]
IC50 (MCF-7TN-R cells [1]): 104 µM
Log K [2]: 0.86

CCCCCCCCCCCCCCNC(=O)[C@H](CO)N=Cc1cccc(Cl)c1 [II-14, (S)-2-(3-chlorobenzylideneamino)-3-hydroxy-N-tetradecylpropanamide]
IC50 (MCF-7TN-R cells [1]): 24.1 µM
Log K [2]: 1.08

CCCCCCCCCCCCCCNC(=O)[C@H](CO)N=Cc1ccccc1[N+](=O)[O-] [II-9, (S)-2-(2-nitrobenzylideneamino)-3-hydroxy-N-tetradecylpropanamide]
IC50 (MCF-7TN-R cells [1]): 21.7 µM
Log K [2]: 0.88

CCCCCCCCCCCCC/C=C/[C@@H](O)[C@H](CO)NC(=O)C1CCCCC1 [Compound I-1, N-((2S,3R,E)-1,3-dihydroxyoctadec-4-en-2-yl)cyclohexanecarboxamide]
IC50 (MCF-7 cells [6]): 22.6 µM
IC50 (MCF-7TN-R cells [7]): 2.4 µM
IC50 (MDA-MB-231 cells [8]): 5.4 µM
IC50 (MCF-7 cells [3]; [12]): 1.5 µM
IC50 (MCF-7TN-R cells [4]; [13]): 0.7 µM
IC50 (MDA-MB-231 cells [5]; [14]): 1.6 µM

CCCCCCCCCCCCCCNC(=O)[C@H](CO)N=Cc1cccc(C)c1 [II-11, (S)-2-(3-methylbenzylideneamino)-3-hydroxy-N-tetradecylpropanamide]
IC50 (MCF-7TN-R cells [1]): 82.9 µM
Log K [2]: 1.09

CCCCCCCCCCCCCCNC(=O)[C@H](CO)N=Cc1ccccc1Cl [II-15, (S)-2-(2-chlorobenzylideneamino)-3-hydroxy-N-tetradecylpropanamide]
IC50 (MCF-7TN-R cells [1]): 10.3 µM
Log K [2]: 1.12

CCCCCCCCCCCCCCNC(=O)[C@H](CO)N=Cc1ccc(C)cc1 [II-10, (S)-2-(4-methylbenzylideneamino)-3-hydroxy-N-tetradecylpropanamide]
IC50 (MCF-7TN-R cells [1]): 102 µM
Log K [2]: 1.09

CCCCCCCCCCCCCCNC(=O)[C@H](CO)N=Cc1ccccc1O [II-21, (S)-2-(2-hydroxybenzylideneamino)-3-hydroxy-N-tetradecylpropanamide]
IC50 (MCF-7TN-R cells [1]): 19 µM
Log K [2]: 0.89

CCCCCCCCCCCCCCNC(=O)[C@H](CO)NCc1ccccc1 [II-2, (S)-2-(benzylamino)-3-hydroxy-N-tetradecylpropanamide]
IC50 (MCF-7 cells [3]; [9]): 4.97 µM
IC50 (MCF-7 cells [3]; Table 2, 0.1 μM-20 μM for 10 days, read-out: MCF-7 (IC50), clonogenic survival): 5 µM
IC50 (MCF-7TN-R cells [4]; [10]): 15.2 µM
IC50 (MDA-MB-231 cells [5]; [11]): 10.5 µM

CCCCCCCCCCCCCCNC(=O)[C@H](CO)N=Cc1ccccc1C [II-12, (S)-2-(2-methylbenzylideneamino)-3-hydroxy-N-tetradecylpropanamide]
IC50 (MCF-7TN-R cells [1]): 87.7 µM
Log K [2]: 1.09

CCCCCCCCCCCCCCNC(=O)[C@H](CO)N=Cc1ccccc1OC [II-18, (S)-2-(2-methoxybenzylideneamino)-3-hydroxy-N-tetradecylpropanamide]
IC50 (MCF-7TN-R cells [1]): 12.5 µM
Log K [2]: 0.89
